What was measured:
[1] = system: MCF10A_EGFR/H773_V774insNPH cells; assay: Growth inhibitory activity against MCF10A_EGFR/H773_V774insNPH; assay type: cell-based; conditions: Homo sapiens, 72 h; 3 days; read-out: Cell growth inhibitory activity GI 50 value, MCF10A_EGFR/H773_V774insNPH cell
Protocol: (§1) Test Example 7 Measurement of Growth Inhibitory Activity Against EGFR Overexpressing Cell Line and Exon 20 Insertion Mutant EGFR Expressing Cell Line
(§2) Growth inhibitory activity against an EGFR overexpressing cell line and an exon 20 insertion mutant EGFR expressing cell line was evaluated using MDA-MB-468 cells (ATCC) as an EGFR overexpressing human breast cancer cell line; NCI-H1975 cells (ATCC) as L858R and T790M mutant EGFR-positive human lung cancer cells; and MCF10A_EGFR cells, MCF10A_EGFR/V769_D770insASV cells, MCF10A_EGFR/D770_N771insSVD cells, and MCF10A_EGFR/H773_V774insNPH cells (Fukushima Medical University) which were cells obtained by introducing the EGFR gene (WT, […], D770_N771insSVD mutant, H773_V774insNPH mutant) into MCF10A cells as human normal mammary gland cells.
(§3) The MDA-MB-468 cells were suspended in Leibovitz's L-15 medium containing 10% inactivated fetal bovine serum. The NCI-H1975 cells were suspended in RPMI-1640 medium containing 10% inactivated fetal bovine serum. The MCF10A_EGFR cells, the MCF10A_EGFR/V769_D770insASV cells, the MCF10A_EGFR/D770_N771insSVD cells, or the MCF10A_EGFR/H773_V774insNPH cells were suspended in DMEM/Ham's F-12 medium (containing L-glutamine, phenol red, HEPES, and sodium pyruvate) containing 10 μg/mL insulin, 500 ng/mL hydrocortisone, 5 μmol/L forskolin, and 5% inactivated horse serum in terms of their final concentrations. Each cell suspension was seeded in each well of a 96-well flat-bottom plate such that the number of cells per well was 500, and was then cultured in a carbon dioxide gas-free culture vessel for the MDA-MB-468 cells and in a 5% carbon dioxide gas-containing culture vessel for the other cells at 37° C. for 1 day. The pyrimidine compound of the present invention was prepared at 1 mM in DMSO and then diluted 1/200 with a medium to prepare a 5 μM solution. […]
(§4) The cells at the start of the culture (day 0) and after the culture (day 3) were counted using CellTiter-Glo(R) 2.0 Reagent (Promega Corp.) according to the protocol recommended by the manufacturer. […]

[2] = system: MCF10A_EGFR/V769_D770insASV cells; assay: Growth inhibitory activity against MCF10A_EGFR/V769_D770insASV; assay type: cell-based; conditions: Homo sapiens, 72 h; 3 days; read-out: Cell growth inhibitory activity GI 50 value, MCF10A_EGFR/V769_D770insASV cell
Protocol: as §1, §2, §3, §4

[3] = biological target: T1, human HER2 exon 20 insertion mutant (A775_G776insYVMA) protein (Homo sapiens, UniProt P04626, INS775YVMA); assay: Inhibitory action (in vitro) against HER2 exon 20 insertion mutant phosphorylation activity; assay type: biochemical; conditions: pre-incubated 30 minutes, ATP 200 μM, 25°C, 220 minutes; read-out: HER2ex20insYVMA inhibitory activity IC50 value
T1 construct: purchased SignalChem
T1 sequence (P04626 with tags, fused parts or gaps INS775YVMA limits assumed): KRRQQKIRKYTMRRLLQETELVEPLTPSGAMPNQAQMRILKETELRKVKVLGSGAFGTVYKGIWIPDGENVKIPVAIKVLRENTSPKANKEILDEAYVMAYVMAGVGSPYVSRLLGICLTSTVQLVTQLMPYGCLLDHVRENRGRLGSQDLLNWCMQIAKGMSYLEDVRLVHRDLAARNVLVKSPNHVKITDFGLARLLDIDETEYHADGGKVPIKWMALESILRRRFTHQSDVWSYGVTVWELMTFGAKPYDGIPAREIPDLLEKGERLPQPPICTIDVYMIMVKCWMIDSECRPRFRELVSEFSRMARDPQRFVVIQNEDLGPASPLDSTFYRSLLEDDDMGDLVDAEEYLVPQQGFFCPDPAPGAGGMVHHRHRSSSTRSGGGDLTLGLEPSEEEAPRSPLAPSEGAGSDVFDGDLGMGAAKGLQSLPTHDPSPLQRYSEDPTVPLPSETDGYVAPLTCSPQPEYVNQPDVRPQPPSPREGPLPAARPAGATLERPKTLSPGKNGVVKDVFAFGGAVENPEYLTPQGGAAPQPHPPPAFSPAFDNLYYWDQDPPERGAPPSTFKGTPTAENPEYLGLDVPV
Description: Test Example 2 Measurement of Inhibitory Action (In Vitro) Against HER2 Exon 20 Insertion Mutant (HER2ex20insYVMA) Phosphorylation Activity
In order to determine conditions for a method of measuring the in vitro inhibitory activity of a compound against HER2 exon 20 insertion mutant phosphorylation activity, as in the case of HER2, ProfilerPro Peptide 22 was used as a substrate. A purified recombinant human HER2 exon 20 insertion mutant (A775_G776insYVMA) protein was purchased from SignalChem. Upon the measurement of the inhibitory activity of the compound, first, the pyrimidine compound of the present invention was diluted stepwise with dimethyl sulfoxide (DMSO). Subsequently, the HER2 exon 20 insertion mutant protein and the pyrimidine compound of the present invention in DMSO solution (final concentration of DMSO: 5%) were added into a buffer for the kinase reaction (13.5 mM Tris (pH 7.5), 2 mM dithiothreitol, and 0.009% Tween 20), and the obtained mixture was then pre-incubated at 25° C. for 30 minutes. Thereafter, the substrate peptide (final concentration: 1 μM), manganese chloride (final concentration: 25 mM), magnesium chloride (final concentration: 20 mM), and ATP (final concentration: 200 μM) were added into the reaction mixture, and the thus obtained mixture was then incubated at 25° C. for 220 minutes, so that the kinase reaction was carried out. To the reaction solution, EDTA was added to a final concentration of 30 mM, so as to terminate the reaction. Finally, using LabChip (registered trademark) EZ Reader II (PerkinElmer), an unphosphorylated substrate peptide (S) and a phosphorylated peptide (P) were separated and detected according to microchannel capillary electrophoresis.

MCF10A_EGFR cells = assay: Growth inhibitory activity against MCF10A_EGFR (EGFR-WT); assay type: cell-based; conditions: Homo sapiens, 72 h; 3 days; read-out: Cell growth inhibitory activity GI 50 value, MCF10A_EGFR cell (EGFR-WT)
Protocol: as §1, §2, §3, §4

NCI-H1975 cells = assay: Growth inhibitory activity against NCI-H1975 (L858R and T790M mutant EGFR-positive); assay type: cell-based; conditions: Homo sapiens, NCI-H1975, 72 h; 3 days; read-out: Cell growth inhibitory activity GI 50 value, NCI-H1975
Protocol: as §1, §2, §3, §4

With `C=CC(=O)N1C[C@H](n2c(C#CC)c(C(=O)N[C@H](C)c3ccccc3)c3c(N)ncnc32)C[C@@H]1C` [Example 2, 7-((3R,5S)-1-acryloyl-5-methylpyrrolidin-3-yl)-4-amino-N—((R)-1-phenylethyl)-6-(prop-1-yn-1-yl)-7H-pyrrolo[2,3-d]pyrimidine-5-carboxamide] the GI50 [1] was 16 nM, the GI50 [2] was 6.7 nM and the IC50 [3] was < 0.3 nM. The GI50 (MCF10A_EGFR cells) was 55 nM and the GI50 (NCI-H1975 cells) was 77 nM.
For `C=CC(=O)N1C[C@H](n2c(C#CC3CC3)c(C(=O)N[C@H](C)c3ccccc3)c3c(N)ncnc32)C[C@@H]1C` [Example 11, 7-((3R,5S)-1-acryloyl-5-methylpyrrolidin-3-yl)-4-amino-6-(cyclopropylethynyl)-N—((R)-1-phenylethyl)-7H-pyrrolo[2,3-d]pyrimidine-5-carboxamide], the GI50 [1] was 18 nM, the GI50 [2] was 7.3 nM and the IC50 [3] was < 0.3 nM. It also gave a GI50 (MCF10A_EGFR cells) of 81 nM and a GI50 (NCI-H1975 cells) of 87 nM.
In the case of `C=CC(=O)N1C[C@H](n2c(C#CC(C)(C)C)c(C(=O)N[C@H](C)c3ccccc3)c3c(N)ncnc32)C[C@@H]1C` [Example 12, 7-((3R,5S)-1-acryloyl-5-methylpyrrolidin-3-yl)-4-amino-6-(3,3-dimethylbut-1-yn-1-yl)-N—((R)-1-phenylethyl)-7H-pyrrolo[2,3-d]pyrimidine-5-carboxamide], the GI50 [1] is reported as 50 nM, the GI50 [2] is reported as 24 nM and the IC50 [3] is reported as 0.39 nM. The GI50 (MCF10A_EGFR cells) was 206 nM and the GI50 (NCI-H1975 cells) was 153 nM.

From patent US20230255972A1, “PYRIMIDINE COMPOUND-CONTAINING COMBINATION TO BE USED IN TUMOR TREATMENT” (TAIHO PHARMACEUTICAL CO., LTD., priority 2020, published 2023)
